Measured values: patent publication US12071425B2 (Genentech, Inc., priority 2018, dated 2024)
Where a name gives a salt, the structure may show the parent alone.

Test system: cells
Assay: not given
Settings: high levels of 4μ8C; cited from earlier work

Q: With `Cc1cc(=O)oc2c(C=O)c(O)ccc12` [Compound 4μ8C] as the compound, how does the toxicity in cells read?
A: no measurable toxicity

Biological target: kinase domain of IRE1 alpha (His-tagged kinase dead construct KR, AA G547-L977, D688N) (Homo sapiens (Human), UniProt O75460, D688N)
Sequence (O75460 547-977 D688N): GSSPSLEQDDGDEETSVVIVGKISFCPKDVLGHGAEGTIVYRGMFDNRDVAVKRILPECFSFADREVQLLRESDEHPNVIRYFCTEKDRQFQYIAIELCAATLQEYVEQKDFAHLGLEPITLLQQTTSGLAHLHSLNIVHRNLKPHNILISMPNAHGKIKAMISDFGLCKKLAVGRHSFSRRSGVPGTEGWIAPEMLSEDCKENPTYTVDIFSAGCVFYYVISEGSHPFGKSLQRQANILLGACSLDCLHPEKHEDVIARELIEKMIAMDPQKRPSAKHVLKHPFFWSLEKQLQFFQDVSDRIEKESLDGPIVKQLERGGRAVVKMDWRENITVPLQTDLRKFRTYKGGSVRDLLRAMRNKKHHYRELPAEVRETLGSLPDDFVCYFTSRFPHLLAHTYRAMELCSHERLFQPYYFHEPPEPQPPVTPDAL
Assay: IRE1α TR-FRET competition binding assay
Settings: competition with Kinase Tracer 236, 0.1 μM; one hour at room temperature
Procedure, shortened: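 Compound displacement of an ATP-site fluorescent tracer (0.1 μM final) measured by TR-FRET after 1 h at room temperature. Protein, a His-tagged D688N kinase/RNase construct from Sf9 cells (0.006 μM final), was pre-bound 1 h at 4° C to Eu anti-His antibody (0.002 μM) in pH 7.5 HEPES buffer.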

Q: For `Cc1c(Oc2ncccc2-c2ccnc(N[C@H]3CCCNC3)n2)cc(F)c(NS(=O)(=O)Cc2ccccc2)c1F` [Compound 154, (S)-N-(2,6-difluoro-3-methyl-4-(3-(2-(piperidin-3-ylamino)pyrimidin-4-yl)pyridin-2-yloxy)phenyl)(phenyl)methanesulfonamide hydrochloride], which IC50 is on record?
A: 3.8 nM

Q: Which IC50 does the source give for `Cc1cc(NS(=O)(=O)Cc2ccccc2)ccc1Oc1ncccc1-c1ccnc(N[C@H]2CCCNC2)n1` [Compound 157, (S)-N-(3-methyl-4-((3-(2-(piperidin-3-ylamino)pyrimidin-4-yl)pyridin-2-yl)oxy)phenyl)-1-phenylmethanesulfonamide] here?
A: 29 nM

Q: For `COc1ccccc1CS(=O)(=O)Nc1ccc(Oc2ncccc2-c2ccnc(N[C@H]3CCCNC3)n2)c(F)c1F` [Compound 380, (S)—N-(2,3-Difluoro-4-((3-(2-(piperidin-3-ylamino)pyrimidin-4-yl)pyridin-2-yl)oxy)phenyl)-1-(2-methoxyphenyl)methanesulfonamide], which IC50 is on record?
A: 0.9 nM

Q: Which IC50 does the source give for `O=S(=O)(CC1CC1(F)F)Nc1c(F)cc(Oc2ncccc2-c2ccnc(N[C@@H]3CNC[C@@H](F)C3)n2)c(F)c1F` (stereo partly drawn) [Compound 271, 1-(2,2-Difluorocyclopropyl)-N-(2,3,6-trifluoro-4-((3-(2-(((3S,5S)-5-fluoropiperidin-3-yl)amino)pyrimidin-4-yl)pyridin-2-yl)oxy)phenyl)methanesulfonamide] here?
A: 3.6 nM

Q: Which IC50 does the source give for `O=S(=O)(CC1CCC1(F)F)Nc1c(F)cc(Oc2ncccc2-c2ccnc(N[C@@H]3CNC[C@@H](F)C3)n2)c(F)c1F` (single isomer, unassigned) [Compound 265] here?
A: 1.4 nM

Q: Which IC50 does the source give for `CN=S(=O)(Cc1ccccc1)Nc1ccc(Oc2ncccc2-c2ccnc(N[C@H]3CCCNC3)n2)c(F)c1F` (stereo partly drawn) [Compound 273, N-(2,3-difluoro-4-((3-(2-(((S)-piperidin-3-yl)amino)pyrimidin-4-yl)pyridin-2-yl)oxy)phenyl)-N′-methyl-1-phenylmethanesulfonimidamide] here?
A: 410 nM

Q: For `O=S(=O)(Nc1ccc(Oc2ncccc2-c2ccnc(N[C@H]3CCCNC3)n2)cc1)c1ccccc1Cl` [Compound 134, (S)-2-Chloro-N-(4-((3-(2-(piperidin-3-ylamino)pyrimidin-4-yl)pyridin-2-yl)oxy)phenyl)benzenesulfonamide hydrochloride], which IC50 is on record?
A: 21 nM

Q: With `C[C@@]1(F)CNC[C@@H](Nc2nccc(-c3cccnc3Oc3cc(F)c(NS(=O)(=O)Cc4ccccc4F)c(F)c3F)n2)C1` [Compound 275, 1-(2-Fluorophenyl)-N-(2,3,6-trifluoro-4-((3-(2-(((3S,5S)-5-fluoro-5-methylpiperidin-3-yl)amino)pyrimidin-4-yl)pyridin-2-yl)oxy)phenyl)methanesulfonamide] as the compound, how does the IC50 read?
A: 0.23 nM

Q: With `COC1CNCC(Nc2nccc(-c3cccnc3Oc3cc(F)c(NS(=O)(=O)Cc4ccccc4)c(F)c3F)n2)C1` (single isomer, unassigned) [Compound 317, 1-Phenyl-N-(2,3,6-trifluoro-4-((3-(2-((5-methoxypiperidin-3-yl)amino)pyrimidin-4-yl)pyridin-2-yl)oxy)phenyl)methanesulfonamide] as the compound, how does the IC50 read?
A: 140 nM

Q: For `COC1CNCC(Nc2nccc(-c3cccnc3Oc3cc(F)c(NS(=O)(=O)Cc4ccccc4)c(F)c3F)n2)C1` (single isomer, unassigned) [Compound 319, 1-Phenyl-N-(2,3,6-trifluoro-4-((3-(2-((5-methoxypiperidin-3-yl)amino)pyrimidin-4-yl)pyridin-2-yl)oxy)phenyl)methanesulfonamide], which IC50 is on record?
A: 0.48 nM

Q: With `Cn1ccc(CS(=O)(=O)Nc2c(F)cc(Oc3ncccc3-c3ccnc(N[C@H]4CCCNC4)n3)c(F)c2F)n1` [Compound 236, (S)-1-(1-methyl-1H-pyrazol-3-yl)-N-(2,3,6-trifluoro-4-(3-(2-(piperidin-3-ylamino)pyrimidin-4-yl)pyridin-2-yloxy)phenyl)methanesulfonamide] as the compound, how does the IC50 read?
A: 9 nM

Q: With `Cc1cc(NS(=O)(=O)c2ccccc2Cl)cc(C)c1Oc1ncccc1-c1ccnc(N[C@H]2CCCNC2)n1` [Compound 131, (S)-2-Chloro-N-(3,5-dimethyl-4-((3-(2-(piperidin-3-ylamino)pyrimidin-4-yl)pyridin-2-yl)oxy)phenyl)benzenesulfonamide hydrochloride] as the compound, how does the IC50 read?
A: 59 nM

Q: Which IC50 does the source give for `O=S(=O)(Cc1ccncc1)Nc1ccc(Oc2ncccc2-c2ccnc(N[C@H]3CCCNC3)n2)c(F)c1F` [Compound 234, (S)-N-(2,3-difluoro-4-(3-(2-(piperidin-3-ylamino)pyrimidin-4-yl)pyridin-2-yloxy)phenyl)-1-(pyridin-4-yl)methanesulfonamide] here?
A: 7 nM

Q: Which IC50 does the source give for `N#Cc1cccc(CS(=O)(=O)Nc2ccc(Oc3ncccc3-c3ccnc(N[C@H]4CCCNC4)n3)c(F)c2F)c1` [Compound 229, (S)-1-(3-cyanophenyl)-N-(2,3-difluoro-4-((3-(2-(piperidin-3-ylamino)pyrimidin-4-yl)pyridin-2-yl)oxy)phenyl)methanesulfonamide] here?
A: 6.4 nM

Q: With `CC(C)(F)C1CNCC(Nc2nccc(-c3cccnc3Oc3cc(F)c(NS(=O)(=O)Cc4ccccc4)c(F)c3F)n2)C1` (single isomer, unassigned) [Compound 334, 1-Phenyl-N-(2,3,6-trifluoro-4-((3-(2-((5-(2-fluoropropan-2-yl)piperidin-3-yl)amino)pyrimidin-4-yl)pyridin-2-yl)oxy)phenyl)methanesulfonamide hydrochloride] as the compound, how does the IC50 read?
A: 9.8 nM

Q: With `O=S(=O)(CCC1CCCCC1)Nc1ccc(Oc2ncccc2-c2ccnc(N[C@H]3CCCNC3)n2)c(F)c1F` [Compound 215, (S)-2-cyclohexyl-N-(2,3-difluoro-4-((3-(2-(piperidin-3-ylamino)pyrimidin-4-yl)pyridin-2-yl)oxy)phenyl)ethane-1-sulfonamide] as the compound, how does the IC50 read?
A: 11 nM

Q: With `O=S(=O)(Cc1ccccc1Cl)Nc1c(F)cc(Oc2ncccc2-c2ccnc(N[C@@H]3CNC[C@@H](F)C3)n2)c(F)c1F` [Compound 352, 1-(2-Chlorophenyl)-N-[2,3,6-trifluoro-4-[[3-[2-[[(3S,5S)-5-fluoro-3-piperidyl]amino]pyrimidin-4-yl]-2-pyridyl]oxy]phenyl]methanesulfonamide] as the compound, how does the IC50 read?
A: 0.2 nM

Q: With `Cc1cc(NS(=O)(=O)Cc2ccccc2)cc(F)c1Oc1ncccc1-c1ccnc(N[C@H]2CC[C@H](N)CC2)n1` [Compound 119, N-(4-((3-(2-(((1r,4r)-4-aminocyclohexyl)amino)pyrimidin-4-yl)pyridin-2-yl)oxy)-3-fluoro-5-methylphenyl)-1-phenylmethanesulfonamide hydrochloride] as the compound, how does the IC50 read?
A: 13 nM
